These results are taken from US20260335305A1, “METHODS OF USING ITRACONAZOLE DRY POWDERS” (Pulmatrix Operating Company, Inc., priority 2022, published 2026).

A short description of data set [1]: Itraconazole subparticle size of milled suspension. It counts as physicochemical. The conditions noted are these: water and polysorbate 80, milled at 1800 rpm for one hour. As for the experimental part:
Particle Size Reduction using Low Energy Wet Milling. One technique for reducing the particle size of the itraconazole was via low energy wet milling (also known as roller milling, or jar milling). Suspensions of the itraconazole were prepared in an anti-solvent, which can be water, or any solvent in which the active agent is not appreciably soluble. Stabilizers, which can be, but are not limited to, non-ionic surfactants or amphiphilic polymers, are then added to the suspension along with milling media, which can be, but are not limited to, spherical with high wear resistance and in the size range from 0.03 to 0.70 millimeters in diameter. The vessels containing the suspensions are then rotated using a jar mill (US Stoneware, East Palestine, OH USA) while taking samples periodically to assess particle size (LA-950, HORIBA, Kyoto, Japan).
Particle Size Reduction using High Energy Wet Milling: Another technique for reducing the particle size of the itraconazole was via high-energy wet milling using a rotor-stator, or agitated media mill. Suspensions of the itraconazole were prepared in an anti-solvent, which can be water, or any solvent in which the active agent is not appreciably soluble. […]

The conditions of data set [2]: cited from earlier work; for AUC0-24 h / Accumulation ratio AUC0-24 h / Accumulation ratio Cmax / Cmax / Kel / Tmax: inhaled Formulation I.
For data set [3], the system named is CYP3A4. The conditions noted are these: role: inhibitor; unbound Ki, Simcyp V19 file; cited from earlier work.
For data set [4] the following is noted: single inhaled dose of 20 mg of dry powder; cited from earlier work.
For data set [5] the following is noted: cited from earlier work; for RB / fu: Simcyp V19 file.
[6] abbreviates: Day 1, 35 mg inhaled Formulation I QD.
Setting [7] is: Day 14, 35 mg inhaled Formulation I QD.

Where two headings read alike, the source gives them in different places.

Regarding `CCC(C)n1ncn(-c2ccc(N3CCN(c4ccc(OCC5COC(Cn6cncn6)(c6ccc(Cl)cc6Cl)O5)cc4)CC3)cc2)c1=O` (centres unmarked) [Itraconazole, itraconazole], in data set [1], the “final median particle size (Dv(50)) of the milled suspension” value is […]. Moreover, in data set [2] (setting [6]), the “AUC0-24 h, observed mean” value was […] and the “Cmax, observed mean” value is recorded as 5.23 ng/mL. In data set [2] (setting [7]), the “AUC0-24 h, observed mean” value was […] and the “Cmax, observed mean” value is listed as 15.2 ng/mL. For the same compound, in data set [2] (10 mg), the AUC0-24 h is on record as […], the “Accumulation ratio AUC0-24 h” value was […], the “Accumulation ratio Cmax” value is […] and the Cmax is given as […]. In data set [2] (10 mg), the Kel is […] and the Tmax is […]. In data set [2] (20 mg), the AUC0-24 h was […], the “Accumulation ratio AUC0-24 h” value is given as […], the “Accumulation ratio Cmax” value is recorded as […] and the Cmax is […]. Also, in data set [2] (20 mg), the Kel is […] and the Tmax is on record as […]. Also, in data set [2] (35 mg QD for 14 days), the AUC0-24 h was […], the “Accumulation ratio AUC0-24 h” value was […], the “Accumulation ratio Cmax” value is recorded as […] and the Cmax is 15.2 (49.3) ng/mL. In data set [2] (35 mg QD for 14 days), the Kel is […] and the Tmax was […]. In addition, the “Ki, u, ITZ” value in data set [3] is […]. Besides, the lung exposure result in data set [4] is “lung exposures that would be considered therapeutic”. In data set [5], the RB is […] and the fu is on record as […].

As to `Cc1ncc2n1-c1ccc(Cl)cc1C(c1ccccc1F)=NC2` [Midazolam, midazolam], the fm in data set [5] (Simcyp V19 Midazolam File) was 0.84.

As for `CC(O)C(C)n1ncn(-c2ccc(N3CCN(c4ccc(OCC5COC(Cn6cncn6)(c6ccc(Cl)cc6Cl)O5)cc4)CC3)cc2)c1=O` (centres unmarked) [OH-itraconazole], in data set [2] (setting [6]), the “AUC0-24 h, observed mean” value was 38.2 ng·h/mL and the “Cmax, observed mean” value is 2.10 ng/mL. Moreover, in data set [2] (setting [7]), the “AUC0-24 h, observed mean” value is 168 ng·h/mL and the “Cmax, observed mean” value is 8.68 ng/mL. Moreover, in data set [2] (10 mg), the AUC0-24 h was 42.4 (26.1) ng h/mL, the “Accumulation ratio AUC0-24 h” value is listed as 3.8, the “Accumulation ratio Cmax” value was 3.5 and the Cmax is given as 2.25 (25.3) ng/mL. Further, in data set [2] (10 mg), the Kel is 0.0263 h⁻¹ and the Tmax is on record as 6 h. Moreover, in data set [2] (20 mg), the AUC0-24 h is given as 128 (56.1) ng h/mL, the “Accumulation ratio AUC0-24 h” value is 4.4, the “Accumulation ratio Cmax” value is recorded as 4.2 and the Cmax was 6.43 (54.7) ng/mL. Moreover, in data set [2] (20 mg), the Kel is 0.0223 h⁻¹ and the Tmax was 6 h. Also, in data set [2] (35 mg QD for 14 days), the AUC0-24 h is on record as 169 (116) ng h/mL, the “Accumulation ratio AUC0-24 h” value is 4.5, the “Accumulation ratio Cmax” value is 4.2 and the Cmax is 8.68 (91.0) ng/mL. Also, in data set [2] (35 mg QD for 14 days), the Kel is 0.0248 h⁻¹ and the Tmax is recorded as 8 h. Further, the “Ki, u, ITZ” value in data set [3] was 2.3 nM. For the same compound, in data set [5], the RB is reported as 0.58 and the fu is given as 0.016.

In general, Tmax refers to the time at which the peak concentration occurs.
